Data from patent publication US6114517A, “Methods of modulating tumor necrosis factor α-induced expression of cell adhesion molecules” (Isis Pharmaceuticals Inc., priority 1998, dated 2000).

Assays:
Type in all cases: cell-based, human
ERK = assay: TNF-α-stimulated ERK activity, in vitro kinase assay on extracts of treated cells; conditions: 48 hours recovery, TNF-α 5 or 15 minutes
Experimental: To examine the effect of the c-raf antisense oligonucleotide (ISIS 12854, SEQ ID NO. 2) on ERK, JNK, and p38 MAPK activities stimulated by TNF-α, in vitro kinase assays were performed on extracts derived from cells treated with ISIS 12854 (SEQ ID NO. 2). Cells were treated with oligonucleotides and induced with cytokines. At the indicated time, cells were lysed on ice and debris was removed by centrifugation. Protein concentration was measured by Bradford assay. Lysate containing equal amounts of protein were incubated with primary antibody-agarose conjugates (ERK and p38 assay; Santa Cruz Biotechnology, Santa Cruz, Calif.), or with JNK1-specific or JNK2-specific antibodies (JNK assay; Upstate Biotechnology, Lake Placid, N.Y.), overnight at 4° C.
For isoform-specific JNK assays, anti-rabbit IgG conjugated with agarose beads was added to cell extracts following JNK antibody treatment and wash steps and incubated for 2 hours at 4° C. […]
Cells were treated with the c-raf antisense compound, ISIS 12854 (SEQ ID NO. 2), allowed to recover for 48 hours, at which time TNF-α was added for 5 or 15 minutes prior to cell lysis and initiation of the kinase assays. […] Suitable substrates and ATP were added to the immunoprecipitated kinase complexes and the reaction mixes were analyzed on SDS-PAGE. […]

A-raf protein = A-raf protein expression by Western blot in HMVEC; conditions: same blot stripped and blotted with antibody against A-raf
Experimental: (§1) For determination of protein levels by Western blot, cellular extracts were prepared using […] of RIPA extraction buffer per 100-mm dish. The protein concentration was quantified by Bradford assay using the BioRad kit (BioRad, Hercules, Calif.). Equal amounts of protein were loaded on 10% or 12% SDS-PAGE mini-gel (Novex, San Diego, Calif.). Once transferred to PVDF membranes (Millipore, Bedford, Mass.), the membranes were then treated for a minimum of 2 hours with specific primary antibody followed by incubation with secondary antibody conjugated to HRP. The results were visualized by Enhanced Chemiluminescent (ECL) detection (New England BioLab, Beverly, Mass.). In some experiments, the blots were stripped in stripping buffer (2% SDS, 12.5 mM Tris, pH 6.8) for 30 minutes at 50° C. After extensive washing, the blots were blocked and blotted with different primary antibody.
Reduction of c-raf protein levels also occurred following oligonucleotide treatment. Reduction in protein expression was first detectable 24 hours after treatment and maximal reduction of c-raf protein levels was achieved 48 hours after treatment with 150 nM oligonucleotide. Reduction of c-raf protein levels persisted up to 72 hour following initial treatment.

c-raf mRNA = c-raf mRNA levels by Northern blot in HMVEC
Experimental: Human dermal microvascular cells (HMVEC-d; Clonetics, San Diego, Calif.) were cultivated in endothelial basal media (EBM, Clonetics) supplemented with 10% fetal bovine serum (HyClone, Logan, Utah). Cells were grown in 100 mm petri dishes until 70-80% confluent, then washed with PBS and OPTI-MEM (Life Technologies, Inc., Gaithersburg, Md.). The cells were then incubated in the presence of OPTI-MEM and […] LIPOFECTIN (a 1:1 (w/w) liposome formulation of the cationic lipid N-[1-(2,3-dioleyloxy)propyl]-n,n,n-trimethylammonium chloride (DOTMA), and dioleoyl phosphotidylethanolamine (DOPE) in membrane filtered water (Life Technologies, Gaithersburg, Md.), per 100 nM of oligonucleotide followed by addition of oligonucleotide at the appropriate concentrations.
For determination of mRNA levels by Northern blot, total RNA was prepared from cells by the guanidinium isothiocyanate procedure or by the Qiagen RNAEASY method (Qiagen, Santa Clarita, Calif.) at the indicated times after initiation of oligonucleotide treatment. Northern blot analysis was performed as described in Current Protocols in Molecular Biology (Ausubel, F. M., et al., (eds), 1987, Greene Publishing Assoc. and Wiley Interscience, New York). A glyceraldehyde 3-phosphate dehydrogenase (G3PDH) probe was purchased from Clontech (Palo Alto, Calif., Catalog Number 9805-1). RNA was quantified and normalized to G3PDH mRNA levels using a Molecular Dynamic PHOSPHORIMAGER (Sunnyvale, Calif.).
(§2) ISIS 12854 (SEQ ID NO. 2) is a 2'-O-methoxyethyl mixed backbone chimeric antisense oligonucleotide designed to hybridize with 3'-untranslated sequences contained within human c-raf mRNA. To determine whether this antisense oligonucleotide is effective as a c-raf inhibitor in endothelial cells, human dermal microvascular cells (HMVEC) were treated with ISIS 12854 (SEQ ID NO. 2) as described in Example 2. C-raf mRNA and protein expression was examined by northern and Western blot analysis. The c-raf cDNA probe was generated from the plasmid, p627 (American Type Culture Collection, Manassas, Va.; catalog #41050), following the supplied instructions. The c-raf antibody was obtained from Transduction Laboratories, Inc. (Lexington, Ky.).

c-raf protein = c-raf protein levels by Western blot in HMVEC
Experimental: as §1, §2

Q: For “ToCoCoCoGoCsCsTsGsTsGsAsCsAsToGoCoAoToT [ISIS 12854]”, which ERK activity (ERK) is on record?
A: reduced

Q: What about the A-raf protein expression (A-raf protein) of the same substance?
A: largely unaffected

Q: What about the “% mRNA Expression (c-raf)” value (c-raf mRNA; 0.5 nM) of the same substance?
A: 67%

Q: What about the “% mRNA Inhibition (c-raf)” value (c-raf mRNA; 0.5 nM) of the same substance?
A: 33%

Q: And the “% mRNA Expression (c-raf)” value (c-raf mRNA; 2.5 nM)?
A: 31%

Q: What about the “% mRNA Inhibition (c-raf)” value (c-raf mRNA; 2.5 nM) of the same substance?
A: 69%

Q: And the “% mRNA Expression (c-raf)” value (c-raf mRNA; 10 nM)?
A: 15%

Q: What about the “% mRNA Inhibition (c-raf)” value (c-raf mRNA; 10 nM) of the same substance?
A: 85%

Q: What about the “% mRNA Expression (c-raf)” value (c-raf mRNA; 50 nM) of the same substance?
A: 10%

Q: What about the “% mRNA Inhibition (c-raf)” value (c-raf mRNA; 50 nM) of the same substance?
A: 90%

Q: What about the “% mRNA Expression (c-raf)” value (c-raf mRNA; 100 nM) of the same substance?
A: 13%

Q: What about the “% mRNA Inhibition (c-raf)” value (c-raf mRNA; 100 nM) of the same substance?
A: 87%

Q: And the “% mRNA Expression (c-raf)” value (c-raf mRNA; 200 nM)?
A: 3%

Q: And the “% mRNA Inhibition (c-raf)” value (c-raf mRNA; 200 nM)?
A: 97%

Q: What about the IC50 (c-raf mRNA; read-out: IC50 for c-raf mRNA reduction) of the same substance?
A: ~2.5 nM

Q: What about the “time of maximal reduction of c-raf protein levels” value (c-raf protein; after treatment with 150 nM oligonucleotide) of the same substance?
A: 48 h

Q: And the “time at which reduction in c-raf protein expression was first detectable” value (c-raf protein; after treatment, Western blot)?
A: 24 h

Q: What about the “persistence of reduction of c-raf protein levels” value (c-raf protein; following initial treatment) of the same substance?
A: up to 72 hour
